What was measured:
[1] = cited from earlier work
[2] = tested on: SARS-CoV-2 isolate Australia/VIC01/2020; details: cited from earlier work
[3] = Estimated ivermectin concentration delivered into the respiratory pathways per nebulization; parameters: species or system human; details: about 10% of nebulized solution reaches the respiratory pathways; approx. 3 mg into 150 cc dead space
Description: 3 mL of the solution was administered to the subject directly into the lungs in the form of an inhalable mist.

pseudorabies virus (PRV) = details: mouse, in vivo; cited from earlier work
[4] = ivermectin 5 μM from 2 hours post-infection, 24 h, Vero-hSLAM cells

Substance: ivermectin
- tolerability of high doses ([1]; adults or children): well tolerated
- maximum plasma concentration ([1]; humans, highest reported dose of approximately 1700 μg/kg): 0.28 µM
- IC50 concentration necessary to inhibit viral replication ([2]; as quoted in Example 2): 0.00175 mg/cc
- reduction in viral RNA versus DMSO control, cell associated viral RNA (total virus) [2, 4]: 99.8%
- reduction in viral RNA versus DMSO control, supernatant (released virions) [2, 4]: 93%
- fold reduction of viral RNA ([2]; ivermectin 5 μM, by hour 48, effect maintained at 72 hours): 5000 fold
- IC50 ([2]; serial dilutions of ivermectin, Vero-hSLAM cells, read-out: IC50 against SARS-CoV-2): ~2000 nM
- ivermectin delivered per cc of dead space per nebulization [3]: approximately 0.02 mg per cc
- survival in PRV-infected mice (pseudorabies virus (PRV)): increase survival

Source: patent US20210361688A1 (priority 2020, published 2021)
